How the values were obtained:
Assay type in all cases: in vivo
[1] = system: Nephotettix cincticeps; assay: Activity against Nephotettix cincticeps (spray on rice plants); settings: 504 h, 400 ppm spray on rice plants, larvae in stages 2 and 3, evaluated 21 days later, read-out: percentage reduction in population (% activity)
Experimental: Rice plants are treated with a spray mixture prepared with an aqueous emulsion and comprising 400 ppm of the active ingredient. After the spray coating has dried on, the rice plants are populated with leaf hopper larvae in stages 2 and 3. The test is evaluated 21 days later. The percentage reduction in population (% activity) is determined by comparing the number of surviving leaf hoppers on the treated plants with those on the untreated plants.

[2] = system: Panonychus ulmi (OP- and carb.- resistant); assay: Activity against Panonychus ulmi (OP- and carb.- resistant); settings: 336 h, 400 ppm spray on apple seedlings, evaluated after 14 days, read-out: percentage reduction in population (% activity)
Experimental: Apple seedlings are populated with adult females of Panonychus ulmi. After seven days, the infested plants are sprayed to drip point with an aqueous emulsion comprising 400 ppm of the test compound and grown in the greenhouse. The test is evaluated after 14 days. The percentage reduction in population (% activity) is determined by comparing the number of dead spider mites on the treated plants with those on the untreated plants. […] An activity of over 80% is shown, in particular, by compound Nos. 1.01, 2.01, 2.07, 2.08, 2.10, 2.12 to 2.16, 2.22, 2.23, 2.26, 3.01, 4.01, 4.02, 4.06, 5.01 to 5.03, 5.05, 5.06, 5.08, 5.10, 5.11, 5.15, 5.16 and 5.20 to 5.25.

[3] = system: Aphis craccivora; assay: Activity against Aphis craccivora; settings: 400 ppm spray on pea seedlings, 20° C., evaluated after 3 and 6 days, read-out: percentage reduction in population (% activity)
Experimental: Pea seedlings are infected with Aphis craccivora, subsequently sprayed with a spray mixture comprising 400 ppm of the active ingredient, and incubated at 20° C. The test is evaluated after 3 and 6 days. The percentage reduction in population (% activity) is determined by comparing the number of dead aphids on the treated plants with those on the untreated plants.

[4] = system: adult Anthonomus grandis; assay: Activity against adult Anthonomus grandis; settings: 72 h, 400 ppm spray on young cotton plants, adults, evaluated after 3 days, read-out: percentage reduction in population or in feeding damage (% activity)
Experimental: (§1) Young cotton plants are sprayed with a spray mixture prepared with an aqueous emulsion and comprising 400 ppm of the active ingredient. After the spray coating has dried on, the cotton plants are populated with 10 adult Anthonomus grandis and placed into a plastic container. The test is evaluated after 3 days. The percentage reduction in population, or the percentage reduction in feeding damage (% activity), is determined by comparing the number of dead beetles and the feeding damage on the treated plants with those on the untreated plants.

[5] = system: Crocidolomia binotalis caterpillars; assay: Activity against Crocidolomia binotalis caterpillars; settings: Brassica oleracea, 72 h; 400 ppm spray on young cabbage plants, third larval stage, evaluated after 3 days; read-out: percentage reduction in population or in feeding damage (% activity)
Experimental: as §1, with “cabbage” for “cotton”, “infested” for “populated”, “Crocidolomia binotalis in the third larval stage” for “adult Anthonomus grandis”, “caterpillars” for “beetles”

[6] = system: Nephotettix cincticeps; assay: Systemic activity against Nephotettix cincticeps; settings: 144 h, pots with rice plants in 400 ppm aqueous emulsion solution, larvae in stages 2 and 3, evaluated after 6 days, read-out: percentage reduction in population (% activity)
Experimental: (§2) Pots containing rice plants are placed into an aqueous emulsion solution comprising 400 ppm of the active ingredient. The rice plants are subsequently populated with larvae in stages 2 and 3. The test is evaluated after 6 days. The percentage reduction in population (% activity) is determined by comparing the number of leaf hoppers on the treated plants with those on the untreated plants.

[7] = system: Heliothis virescens caterpillars; assay: Activity against Heliothis virescens caterpillars; settings: 144 h, 400 ppm spray on young soybean plants, first larval stage, evaluated after 6 days, read-out: percentage reduction in population or in feeding damage (% activity)
Experimental: as §1, with “soybean” for “cotton”, “Heliothis virescens in the first larval stage” for “adult Anthonomus grandis”, “6” for “3”, “caterpillars” for “beetles”

[8] = system: Ctenocephalides felis; assay: Activity against Ctenocephalides felis; settings: 504 h, 100 ppm in flea larvae nutrient medium, flea eggs, checked after 21 days
Experimental: 20 to 25 flea eggs are placed into a horizontally positioned 50 ml tissue culture flask into which 15 g of flea larvae nutrient medium comprising 100 ppm of the active ingredient to be tested have previously been introduced. The test flasks are incubated in an incubator at 26° to 27° C. and an atmospheric humidity of 60-70%. After 21 days, the flasks are checked for the presence of adult fleas, unhatched pupae and larvae.

[9] = system: Nilaparvata lugens; assay: Activity against Nilaparvata lugens (spray on rice plants); settings: 504 h, 400 ppm spray on rice plants, larvae in stages 2 and 3, evaluated after 21 days, read-out: percentage reduction in population (% activity)
Experimental: Rice plants are treated with a spray mixture prepared with an aqueous emulsion and comprising 400 ppm of the active ingredient. After the spray coating has dried on, the rice plants are populated with plant hopper larvae in stages 2 and 3. The test is evaluated after 21 days. The percentage reduction in population (% activity) is determined by comparing the number of surviving plant hoppers on the treated plants with the number of plant hoppers on the untreated plants. […] An activity of over 80% is shown, in particular, by compound Nos. 1.01, 2.01 to 2.03, 2.07, 2.08, 2.10 to 2.16, 2.20, 2.22, 2.23, 2.26, 3.01, 4.01 to 4.06, 4.20, 5.01 to 5.06, 5.08, 5.10 to 5.12, 5.15, 5.16 and 5.20 to 5.25.

[10] = system: Nilaparvata lugens; assay: Systemic activity against Nilaparvata lugens; settings: 144 h, pots with rice plants in 400 ppm aqueous emulsion solution, larvae in stages 2 and 3, evaluated 6 days later, read-out: percentage reduction in population (% activity)
Experimental: as §2, with “evaluated” for “evaluated after”, “days later.” for “days.”, “numbers” for “number”, “plant” for “leaf”

[11] = system: Bemisia tabaci; assay: Activity against Bemisia tabaci; settings: 336 h, 400 ppm spray on dwarf bean plants with nymphs, evaluated 14 days after application, read-out: activity (hatching percentages vs untreated control)
Experimental: Dwarf bean plants are placed into gauze cages and populated with adult Bemisia tabaci specimens (white fly). After oviposition has taken place, all adults are removed and, 10 days later, the plants with the nymphs located thereon are treated with a spray mixture of the active ingredients to be tested (concentration 400 ppm), which has been prepared with an aqueous emulsion. The test is evaluated for hatching percentages 14 days after the active ingredient has been applied by comparison with the untreated control batches. […] An activity of over 80% is shown, in particular, by compound Nos. 1.01, 2.01 to 2.08, 2.10 to 2.16, 2.22, 2.23, 3.01, 4.01, 4.02, 4.05, 4.06, 5.02, 5.03, 5.06 to 5.08, 5.10, 5.11, 5.20, 5.21 and 6.09.

[12] = system: Tetranychus urticae; assay: Activity against Tetranychus urticae; settings: 144 h, 400 ppm spray on young bean plants, mixed population, 6 days at 25° C, read-out: percentage reduction in population (% activity)
Experimental: Young bean plants are populated with a mixed population of Tetranychus urticae and, after 1 day, sprayed with a spray mixture prepared with an aqueous emulsion and comprising 400 ppm of the active ingredient. The plants are subsequently incubated for 6 days at 25° C and then evaluated. The percentage reduction in population (% activity) is determined by comparing the number of dead eggs, larvae and adults on the treated plants with those on the untreated ones.

[13] = system: Heliothis virescens; assay: Ovicidal/larvicidal activity on Heliothis virescens; settings: 192 h, 400 ppm spray on eggs deposited on cotton, evaluated after 8 days, read-out: % reduction in population (hatching percentage of eggs and survival rate of caterpillars)
Experimental: Heliothis eggs which have been deposited on cotton are sprayed with a spray mixture prepared with an aqueous emulsion and comprising 400 ppm of the active ingredient. After 8 days, the hatching percentage of the eggs and the survival rate of the caterpillars are evaluated by comparing them with untreated control batches (% reduction in population).

[14] = system: Dermanyssus gallinae; assay: Activity against Dermanyssus gallinae; settings: 72 h, 10 ppm solution, mites in different development stages, after 3 days
Experimental: 2 to 3 ml of a solution comprising 10 ppm of active ingredient and approximately 200 mites in different development stages are placed into a glass container which is open at the top. The container is then sealed with a cottonwool ball, shaken for 10 minutes until the mites are wetted completely, and then briefly turned over so that the remaining test solution can be absorbed by the cottonwool. After 3 days, the mortality of the mites is determined by counting the dead individuals; it is given as a percentage.

O=C(CCCCCCCCCC=C(F)F)OCCOc1ccc(OCc2ccccc2)cc1 [Compound 5.05]
> 80%: activity at 400 ppm [1] | activity at 400 ppm [2] | activity at 400 ppm [3] | activity at 400 ppm [4] | activity at 400 ppm [5]

O=C(CCCCCCCCCC=C(F)F)OCCOc1ccc(Oc2ccccc2)cc1 [Compound 5.01]
> 80%: activity at 400 ppm [4] | activity at 400 ppm [5]

O=C(CCCCCCCCCC=C(F)F)OCCOc1ccc(OCc2cccc(F)c2)cc1 [Compound 5.24]
> 80%: activity at 400 ppm [1] | activity at 400 ppm [6] | activity at 400 ppm [7]

O=C(CCCC=C(F)F)OCCOc1ccc(OC(=O)c2ccccc2)cc1 [Compound 2.22]
> 80%: pest or weed control at 100 ppm [8] | activity at 400 ppm [9] | activity at 400 ppm [10] | activity at 400 ppm [2] | activity at 400 ppm [3] | pest or weed control at 400 ppm [11] | activity at 400 ppm [12] | activity at 400 ppm [7] | pest or weed control at 400 ppm [13]

O=C(CCCCCCCCCC=C(F)F)OCCOc1ccc(Sc2ccccc2)cc1 [Compound 5.02]
> 80%: activity at 400 ppm [4] | activity at 400 ppm [5] | pest or weed control at 400 ppm [11]

O=C(CCCCCCCC=C(F)F)OCCOc1ccc(Oc2ccccc2)cc1 [Compound 4.01]
> 80%: activity at 400 ppm [1] | activity at 400 ppm [2] | mortality at 10 ppm [14] | activity at 400 ppm [6] | pest or weed control at 400 ppm [11] | activity at 400 ppm [7]

O=C(CCCCCCCC=C(F)F)OCCOc1ccc(Sc2ccccc2)cc1 [Compound 4.02]
> 80%: activity at 400 ppm [1] | activity at 400 ppm [2] | mortality at 10 ppm [14] | activity at 400 ppm [6] | pest or weed control at 400 ppm [11] | activity at 400 ppm [7]

O=C(CCCC=C(F)F)OCCOc1ccc(OC(=O)Oc2ccccc2)cc1 [Compound 2.23]
> 80%: pest or weed control at 100 ppm [8] | activity at 400 ppm [9] | activity at 400 ppm [1] | activity at 400 ppm [10] | activity at 400 ppm [2] | activity at 400 ppm [3] | pest or weed control at 400 ppm [11] | activity at 400 ppm [12] | activity at 400 ppm [7] | pest or weed control at 400 ppm [13]

CC(COC(=O)CCCCCCCC=C(F)F)Oc1ccc(Oc2ccccc2)cc1 (centres unmarked) [Compound 4.06]
> 80%: activity at 400 ppm [1] | activity at 400 ppm [2] | mortality at 10 ppm [14] | activity at 400 ppm [6] | pest or weed control at 400 ppm [11] | activity at 400 ppm [7]

— US5481013A, “Carboxylic acid derivatives” (Ciba-Geigy Corporation, priority 1992, dated 1996)
